Data as given in US10413532B2, “Pharmaceutical compositions containing a PDE4 inhibitor and a PI3 delta or dual PI3 delta-gamma kinase inhibitor” (Rhizen Pharmaceuticals SA, priority 2012, dated 2019).
Where two headings read alike, the source gives them in different places.

Assays:
[1] = tested on: IFNγ; experiment: Con A+PMA induced IFNγ in PBMC; assay type: cell-based; settings: 10 nM alone
Description: (§1) PBMC from whole blood were isolated by density gradient using Histopaque and incubated with the desired concentration of inhibitor for 15 minutes. Cytokine release was induced with the addition of Concanavalin A (25 μg/ml)+Phorbol Myristate Acetate (50 ng/ml). Supernatant was collected after 20 hours and IFNγ was estimated using an ELISA kit.

[2] = tested on: TNFα; experiment: LPS induced TNFα in MH-S (mouse alveolar macrophage) cells; assay type: cell-based
Description: (§2) MH-S represents a mouse alveolar macrophage cell line that secretes copious amounts of TNFα upon induction by LPS. Cells were plated at 150,000 cells per well. 10 nM of Compound A1 (final concentration) was added 15 minutes prior to the addition of roflumilast. LPS (1 μg/ml) was added and then incubated for 4 hours. The supernatant was collected after 20 hours and TNFα was estimated using an ELISA kit.

[3] = tested on: IFNγ; experiment: Con A+PMA induced IFNγ in human whole blood (HWB); assay type: cell-based; settings: 10 nM alone
Description: as §1, with “Freshly collected HWB was diluted with media” for “PBMC from whole blood were isolated by density gradient using Histopaque”, “The supernatant” for “Supernatant”

[4] = biological target: PI3K Delta (Homo sapiens, UniProt O00329); experiment: PI3K Delta enzyme inhibition; assay type: biochemical
Chain of PI3K Delta (O00329 whole entry, species assumed): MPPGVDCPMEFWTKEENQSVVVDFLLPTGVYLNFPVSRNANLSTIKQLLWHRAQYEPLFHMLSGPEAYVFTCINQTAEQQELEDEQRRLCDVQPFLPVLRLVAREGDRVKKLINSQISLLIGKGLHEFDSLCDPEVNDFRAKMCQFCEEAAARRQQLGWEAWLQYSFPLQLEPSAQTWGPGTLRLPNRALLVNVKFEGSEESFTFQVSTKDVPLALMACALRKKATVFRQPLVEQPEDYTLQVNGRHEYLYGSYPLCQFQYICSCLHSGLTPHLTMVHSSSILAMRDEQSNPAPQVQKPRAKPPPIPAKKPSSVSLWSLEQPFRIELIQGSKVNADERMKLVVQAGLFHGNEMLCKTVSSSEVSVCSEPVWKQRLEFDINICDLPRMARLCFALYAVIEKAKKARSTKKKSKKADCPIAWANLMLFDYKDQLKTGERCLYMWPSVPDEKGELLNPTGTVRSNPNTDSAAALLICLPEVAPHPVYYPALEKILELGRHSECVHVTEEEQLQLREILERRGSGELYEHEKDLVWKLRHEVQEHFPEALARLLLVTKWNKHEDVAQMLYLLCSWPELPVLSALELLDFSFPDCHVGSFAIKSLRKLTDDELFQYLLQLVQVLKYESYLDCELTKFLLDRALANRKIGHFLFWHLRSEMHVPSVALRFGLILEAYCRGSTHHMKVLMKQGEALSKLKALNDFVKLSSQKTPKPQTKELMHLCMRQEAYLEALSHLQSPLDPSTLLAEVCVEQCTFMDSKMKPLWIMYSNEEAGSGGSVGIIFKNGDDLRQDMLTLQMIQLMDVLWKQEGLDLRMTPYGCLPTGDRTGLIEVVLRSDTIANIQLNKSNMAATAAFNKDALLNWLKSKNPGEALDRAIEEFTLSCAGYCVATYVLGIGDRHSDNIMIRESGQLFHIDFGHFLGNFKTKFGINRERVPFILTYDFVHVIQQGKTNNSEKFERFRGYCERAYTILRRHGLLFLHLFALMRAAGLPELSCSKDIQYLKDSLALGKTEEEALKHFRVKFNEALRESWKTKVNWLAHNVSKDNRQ
Chain of PI3K Delta (P27986 whole entry partner, species assumed): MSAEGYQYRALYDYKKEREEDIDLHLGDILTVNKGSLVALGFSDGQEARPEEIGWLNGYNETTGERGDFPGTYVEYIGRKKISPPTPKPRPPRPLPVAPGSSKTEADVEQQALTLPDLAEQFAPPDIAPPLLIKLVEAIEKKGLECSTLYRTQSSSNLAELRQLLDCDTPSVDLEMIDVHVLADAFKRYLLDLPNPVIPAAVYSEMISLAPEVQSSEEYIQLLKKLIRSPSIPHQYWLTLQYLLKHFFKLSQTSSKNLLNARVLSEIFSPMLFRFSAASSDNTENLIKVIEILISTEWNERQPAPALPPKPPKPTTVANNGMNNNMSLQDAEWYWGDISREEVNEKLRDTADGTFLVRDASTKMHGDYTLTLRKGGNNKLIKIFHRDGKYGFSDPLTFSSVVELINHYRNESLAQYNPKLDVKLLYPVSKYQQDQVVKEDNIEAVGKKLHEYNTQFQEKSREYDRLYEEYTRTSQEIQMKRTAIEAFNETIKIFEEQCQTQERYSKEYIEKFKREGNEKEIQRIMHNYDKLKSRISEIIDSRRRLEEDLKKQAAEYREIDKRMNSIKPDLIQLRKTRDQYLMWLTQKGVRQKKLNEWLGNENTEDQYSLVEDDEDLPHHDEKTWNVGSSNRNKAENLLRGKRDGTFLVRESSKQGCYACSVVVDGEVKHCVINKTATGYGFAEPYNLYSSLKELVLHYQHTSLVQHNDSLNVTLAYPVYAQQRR

[5] = tested on: neutrophil infiltration; experiment: Lipopolysaccharide induced pulmonary neutrophilia in female Wistar rats; assay type: in vivo
Description: After the quarantine period, fasted animals were randomized and divided into groups depending on their body weights. Test compound was prepared as a suspension in a vehicle consisting of 0.5% methylcellulose in which Tween 80 was used as a suspending agent. Compounds or vehicle were administered by oral gavage in a volume of 10 mL/kg. Animals were anaesthetized with ketamine and LPS solution was administered intratracheally 30 minutes after compound administration at a dose of 1 mg/kg. Six hours after LPS instillation, animals were exsanguinated under anaesthesia, and the trachea was cannulated, and lungs were lavaged with 5-ml aliquots of heparinised PBS (1 unit/ml) four times through the tracheal cannula (total volume 20 ml). Bronchioalveolar (BAL) fluid was stored at 2-8° C. until assayed for total cell and differential leukocyte count. BAL fluid was centrifuged (500×g for 10 min) and the resulting cell pellet was resuspended in 0.5 ml of heparinised saline. The total numbers of white blood cells were determined in BAL fluid or blood using a cell counter and were adjusted to 1×10^6 cell/ml. Differential cell count was calculated manually. One hundred microliters of the cell suspension was centrifuged using cytospin 3 to prepare a cell smear. The cell smear was stained with a blood staining solution for differentiation and slides were microscopically observed to identify eosinophils according to their morphological characteristics. The number of each cell type among 300 white blood cells in the cell smear was determined and expressed as a percentage of total cells. The number of eosinophil in BALF was calculated.
The procedure for LPS induced pulmonary neutrophilia in female Wistar rats as described in Example 1 was performed with compound A1 and roflumilast.

[6] = tested on: TNFα; experiment: LPS induced TNFα in THP-1 (human monocyte) cells; assay type: cell-based; settings: compound alone; THP-1 cells, LPS 1 μg/ml
Description: as §2, with “THP-1” for “MH-S”, “monocytic” for “mouse alveolar macrophage”, “that has elevated endogenous pAKT levels and” for “that”

[7] = tested on: TNFα; experiment: LPS induced TNFα in human whole blood (HWB); assay type: cell-based; settings: 100 nM alone
Description: Freshly collected HWB was diluted with media and incubated with the desired concentration of inhibitor for 15 min. LPS (1 μg/ml) was added and then incubated for 24 hours. The supernatant was collected and TNFα estimated using an eBioscience TNFα ELISA kit.
Freshly collected HWB was diluted with media and incubated with the desired concentration of inhibitor for 15 minutes. LPS (1 μg/ml) was added and then incubated for 24 hours. The supernatant was collected and TNFα estimated using an eBioscience TNFα ELISA kit.

[8] = biological target: PI3K Gamma (Homo sapiens, UniProt P48736); experiment: PI3K Gamma enzyme inhibition; assay type: biochemical
Chain of PI3K Gamma (P48736 whole entry, species assumed): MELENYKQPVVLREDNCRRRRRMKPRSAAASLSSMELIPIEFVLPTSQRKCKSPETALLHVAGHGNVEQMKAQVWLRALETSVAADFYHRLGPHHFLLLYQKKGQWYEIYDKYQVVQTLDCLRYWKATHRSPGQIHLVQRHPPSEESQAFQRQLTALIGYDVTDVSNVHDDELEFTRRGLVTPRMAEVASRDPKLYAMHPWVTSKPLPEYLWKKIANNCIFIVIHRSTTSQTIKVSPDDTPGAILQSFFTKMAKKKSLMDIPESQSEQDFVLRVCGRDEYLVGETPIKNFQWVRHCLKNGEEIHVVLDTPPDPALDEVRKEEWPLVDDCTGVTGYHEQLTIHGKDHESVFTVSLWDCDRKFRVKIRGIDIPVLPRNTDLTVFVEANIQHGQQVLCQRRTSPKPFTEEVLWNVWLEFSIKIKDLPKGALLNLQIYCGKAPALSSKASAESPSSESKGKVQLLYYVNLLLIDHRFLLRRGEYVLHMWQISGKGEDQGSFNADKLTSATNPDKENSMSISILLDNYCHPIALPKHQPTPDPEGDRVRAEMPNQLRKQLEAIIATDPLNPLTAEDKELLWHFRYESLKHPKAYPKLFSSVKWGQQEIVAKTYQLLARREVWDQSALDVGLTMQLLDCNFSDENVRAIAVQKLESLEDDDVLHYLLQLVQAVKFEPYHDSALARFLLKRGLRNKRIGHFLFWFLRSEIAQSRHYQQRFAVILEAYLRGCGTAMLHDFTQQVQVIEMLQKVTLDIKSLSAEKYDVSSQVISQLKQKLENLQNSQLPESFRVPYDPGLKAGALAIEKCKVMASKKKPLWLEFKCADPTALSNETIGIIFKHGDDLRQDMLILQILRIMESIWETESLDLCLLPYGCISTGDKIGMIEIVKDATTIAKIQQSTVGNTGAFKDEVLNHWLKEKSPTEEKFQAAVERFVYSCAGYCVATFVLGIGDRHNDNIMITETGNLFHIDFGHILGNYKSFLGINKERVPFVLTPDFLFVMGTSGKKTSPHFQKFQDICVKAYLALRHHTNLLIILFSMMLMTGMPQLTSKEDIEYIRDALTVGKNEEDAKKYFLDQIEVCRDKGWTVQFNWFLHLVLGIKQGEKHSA

[9] = tested on: macrophage and neutrophil infiltration; experiment: Acute cigarette smoke induced cell infiltration in male Balb/c mice; assay type: in vivo; settings: acute CS; for ED50: oral
Description: Animals were acclimatized for seven days prior to the start of the experiment. Animals were randomly distributed to various groups based on their body weights. On day 1, mice were administered by test compound or vehicle by the oral route and after 30 mins test compound administration animals were placed in a whole body exposure box. The mice were exposed to the mainstream smoke of 6 cigarettes from day 1 to day 4. Exposure to the smoke of each cigarette lasted for 10 min (cigarettes were completely burned in the first two minutes and followed by an air flow with animal ventilator) followed by exposure for the next 20 min with fresh room air. After every second cigarette an additional break of 20 min with exposure to fresh room air was conducted. Control animals were exposed to the room air chamber. From day 1 to day 4 animals were administered test compound by the oral route. On day 5, 24 hours after the last cigarette smoke (CS) exposure. animals were exsanguinated under anaesthesia, and the trachea was cannulated and the lungs were lavaged with 0.5 ml aliquots of heparinised PBS (1 unit/ml) four times through a tracheal cannula (total volume 2 ml). Bronchioalveolar (BAL) collected was stored at 2-8° C. until assayed for total cell and differential leukocyte count. BAL fluid was centrifuged (500×g for 10 min) and the resulting cell pellet was resuspended in 0.5 ml of heparinised saline. The total number of white blood cells was determined in BAL fluid and blood using a blood cell counter and adjusted to 1×10^6 cell/ml. Differential cell count was calculated manually. Forty microliters of the cell suspension was centrifuged using cytospin 3 to prepare a cell smear. The cell smear was stained with a blood staining solution for differentiation and microscopically observed by identifying each cell according to its morphological characteristics. The number of each cell type among 300 white blood cells in the cell smear were determined and expressed as a percentage, and the number of neutrophils and macrophages in each BAL fluid were calculated.
The procedure for acute cigarette smoke induced cell infiltration in male Balb/c mice described in Example 1 was performed with Compound A1 and roflumilast

## CC(C)Oc1ccc(-c2nn(C(C)c3oc4cccc(F)c4c(=O)c3-c3cccc(F)c3)c3ncnc(N)c23)cc1F (single isomer, unassigned; (+)) [Compound A1, (+)-2-(1-(4-amino-3-(3-fluoro-4-isopropoxyphenyl)-1H-pyrazolo[3,4-d]pyrimidin-1-yl)ethyl)-5-fluoro-3-(3-fluorophenyl)-4H-chromen-4-one]
[1]
  effect on IFNγ secretion: did not affect IFNγ secretion
[2]; 15 nM alone
  decrease in TNFα secretion: ~10%
[2]; compound alone, LPS 1 μg/ml
  inhibition of TNFα: dose-dependently inhibited TNFα
[3]
  effect on IFNγ secretion: did not affect IFNγ secretion
[4]
  IC50: < 40 nM
[5]; 0.1 mg/kg oral, rat BAL fluid 6 h after LPS
  percent inhibition of neutrophil infiltration: 17.83%
[5]; 1 mg/kg oral, dose-response study, rat
  percent inhibition of neutrophil infiltration: 51.76%
[5]; 10 mg/kg oral, rat
  percent inhibition of neutrophil infiltration: 70.21%
[5]; Neutrophil, oral, rat LPS pulmonary neutrophilia, read-out: 50% inhibition (ED50) dose, neutrophil infiltration
  ED50: 1.3 mg/kg
[5]; combination study, alone at 1.3 mg/kg, rat
  inhibition of neutrophil infiltration: 43.02%
[6]
  inhibition of TNFα: dose-dependently inhibited TNFα
[7]
  effect on TNFα secretion: did not affect TNFα secretion
[8]
  IC50: < 40 nM
[9]; 0.1 mg/kg oral, mouse
  percent inhibition of neutrophil infiltration: 14.76%
[9]; 0.1 mg/kg oral, mouse BAL
  percent inhibition of macrophage infiltration: 20.60%
[9]; 0.3 mg/kg oral, mouse
  percent inhibition of neutrophil infiltration: 51.31%
[9]; 0.3 mg/kg oral, dose-response study, mouse
  percent inhibition of macrophage infiltration: 75.19%
[9]; 1 mg/kg oral, mouse
  percent inhibition of macrophage infiltration: 93.11%
  percent inhibition of neutrophil infiltration: 112.83%
[9]; Macrophage, mouse, read-out: 50% inhibition (ED50) dose, macrophage infiltration
  ED50: 0.2 mg/kg
[9]; Neutrophil, mouse, read-out: dose of 50% inhibition (ED50) of neutrophil infiltration
  ED50: 0.26 mg/kg
[9]; combination study, alone at 0.25 mg/kg, mouse
  inhibition of neutrophil infiltration: 36.69%
[9]; combination study, alone at 0.3 mg/kg, mouse
  inhibition of macrophage infiltration: 31.33%
